Source: ChEMBL document CHEMBL2034920, “Protuboxepin A, a marine fungal metabolite, inducing metaphase arrest and chromosomal misalignment in tumor cells” (Bioorg Med Chem, 2012)
pKd: −log10 of the molar value. Each block holds one compound with its values, some of them ahead of it. Activity calls are given as the source filed them. The calls are words filed in the database; no cut-off is given here.

Experiments:
[1] = Cell cycle arrest in human Hep3B cells assessed as increase of cells with misaligned chromosomes at 10 nM after 24 hrs by immunofluorescence assay; format: functional, cell-based; settings: Hep 3B2
[2] = Cell cycle arrest in human Hep3B cells assessed as induction of prometaphase arrest at 10 nM after 24 hrs by immunofluorescence assay; format: functional, cell-based; settings: Hep 3B2
Hep 3B2 [3] = assay: Disruption of alpha-tubulin networks in human Hep3B cells at 10 nM after 18 hrs by immunofluorescence assay; format: cell-based
Hep 3B2 [4] = assay: Disruption of alpha-tubulin networks in human Hep3B cells assessed as induction of polyglutamylated-tubulin bleb formation at 10 nM after 18 hrs by immunofluorescence assay; format: cell-based
Tubulin (Homo sapiens) = Tubulin (Homo sapiens) (UniProt P68371+Q9H4B7+P0DPH7+P68366+Q13509+Q71U36+P04350+Q3ZCM7+P07437+P68363+Q9BQE3+Q6PEY2+Q13885+Q9BVA1+Q9BUF5); assay: Disruption of gamma-tubulin networks in human Hep3B cells at 10 nM after 18 hrs by immunofluorescence assay; format: cell-based; settings: Hep 3B2
Hep 3B2 [5] = assay: Disruption of alpha-tubulin networks in human Hep3B cells assessed as increasing acetylated-tubulin signal at 10 nM after 18 hrs by immunofluorescence assay; format: cell-based
[6] = Cell cycle arrest in human Hep3B cells assessed as accumulation at S phase at 160 uM after 24 hrs by flow cytometry (reference value: 11.18%); format: functional, cell-based; settings: Hep 3B2
Hep 3B2 [7] = assay: Disruption of alpha-tubulin networks in human Hep3B cells assessed as induction of polyglutamylated-tubulin bleb formation at 80 to 160 uM after 18 hrs by immunofluorescence assay; format: cell-based
Hep 3B2 [8] = assay: Disruption of alpha-tubulin networks in human Hep3B cells at 80 to 160 uM after 18 hrs by immunofluorescence assay; format: cell-based
[9] = molecular target: Apoptosis regulator Bcl-2 (Homo sapiens) (UniProt P10415); assay: Induction of Bcl-2 phosphorylation at Ser70 in human Hep3B cells at 160 uM after 18 hrs by Western blotting analysis; format: cell-based; settings: Hep 3B2
[10] = Cell cycle arrest in human Hep3B cells assessed as accumulation at subG1 phase at 0.5 uM after 24 hrs by flow cytometry (reference value: 1.14%); format: functional, cell-based; settings: Hep 3B2
[11] = Cell cycle arrest in human Hep3B cells assessed as accumulation at G0/G1 phase at 27 uM after 24 hrs by flow cytometry (reference value: 52.99%); format: functional, cell-based; settings: Hep 3B2
[12] = Cell cycle arrest in human Hep3B cells assessed as accumulation at G0/G1 phase at 80 uM after 24 hrs by flow cytometry (reference value: 52.99%); format: functional, cell-based; settings: Hep 3B2
Hep 3B2 [13] = assay: Induction of apoptosis in human Hep3B cells assessed as roundup morphology after 48 hrs by microscopic analysis; format: functional, cell-based
[14] = Cell cycle arrest in human Hep3B cells assessed as accumulation at G2/M phase at 160 uM after 24 hrs by flow cytometry (reference value: 24.37%); format: functional, cell-based; settings: Hep 3B2
Homo sapiens = species on record: Homo sapiens; assay: Induction of Histone H3 Ser10 phosphorylation in human […] cells at 80 to 160 uM after 18 hrs by immunofluorescence staining; format: cell-based
[15] = Cell cycle arrest in human Hep3B cells assessed as accumulation at G2/M phase at 27 uM after 24 hrs by flow cytometry (reference value: 24.37%); format: functional, cell-based; settings: Hep 3B2
HeLa [16] = assay: Inhibition of microtubule dynamics in human HeLa cells expressing EB1-EGFP at 80 to 160 uM after 1 min by image time-lapse analysis; format: functional, cell-based
[17] = Cell cycle arrest in human Hep3B cells assessed as accumulation at G2/M phase at 80 uM after 24 hrs by flow cytometry (reference value: 24.37%); format: functional, cell-based; settings: Hep 3B2
[18] = Cell cycle arrest in human Hep3B cells assessed as accumulation at G0/G1 phase at 160 uM after 24 hrs by flow cytometry (reference value: 52.99%); format: functional, cell-based; settings: Hep 3B2
[19] = Cell cycle arrest in human Hep3B cells assessed as accumulation at M phase at 160 uM after 24 hrs by flow cytometry (reference value: 6.24 +/- 2.14%); format: functional, cell-based; settings: Hep 3B2
Tubulin (Sus scrofa) [20] = molecular target: T1, Tubulin (Sus scrofa) (UniProt P02554+P02550); assay: Induction of porcine tubulin polymerization at 160 uM measured for every 1 min for 60 mins by spectrophotometry; format: protein assay
[21] = Cell cycle arrest in human Hep3B cells assessed as accumulation at G2/M phase at 0.5 uM after 24 hrs by flow cytometry (reference value: 24.37%); format: functional, cell-based; settings: Hep 3B2
[22] = Cell cycle arrest in human Hep3B cells assessed as accumulation at S phase at 0.5 uM after 24 hrs by flow cytometry (reference value: 11.18%); format: functional, cell-based; settings: Hep 3B2
Hep 3B2 [23] = assay: Induction of apoptosis in human Hep3B cells assessed as induction of caspase-3 cleavage at 27 to 160 uM after 18 hrs by Western blotting analysis; format: functional, cell-based
[24] = Cell cycle arrest in human Hep3B cells assessed as induction of chromosome misalignment in nuclei at 80 to 160 uM after 24 hrs by immunofluorescence assay; format: functional, cell-based; settings: Hep 3B2
[25] = molecular target: Cyclin-dependent kinase 1 (Homo sapiens) (UniProt P06493); assay: Inhibition of CDC2 phosphorylation at Tyr15 in human Hep3B cells at 160 uM after 18 hrs by Western blotting analysis; format: cell-based; settings: Hep 3B2
Hep 3B2 [26] = assay: Induction of apoptosis in human Hep3B cells assessed as induction of PARP cleavage at 27 to 160 uM after 18 hrs by Western blotting analysis; format: functional, cell-based
[27] = Binding affinity to porcine brain alphabeta-tubulin using ForteBio's Octet system; format: tissue-based, Sus scrofa
HeLa [28] = assay: Up-regulation of geminin-GFP in human HeLa cells at 160 uM after 18 hrs by FUCCI analysis; format: functional, cell-based
[29] = Cell cycle arrest in human Hep3B cells assessed as accumulation at M phase at 80 uM after 24 hrs by flow cytometry (reference value: 6.24 +/- 2.14%); format: functional, cell-based; settings: Hep 3B2
Hep 3B2 [30] = assay: Disruption of alpha-tubulin networks in human Hep3B cells assessed as increasing acetylated-tubulin signal at 80 to 160 uM after 18 hrs by immunofluorescence assay; format: cell-based
[31] = Cell cycle arrest in human Hep3B cells assessed as accumulation at subG1 phase at 80 uM after 24 hrs by flow cytometry (reference value: 1.14%); format: functional, cell-based; settings: Hep 3B2
[32] = Cell cycle arrest in human Hep3B cells assessed as accumulation at subG1 phase at 27 uM after 24 hrs by flow cytometry (reference value: 1.14%); format: functional, cell-based; settings: Hep 3B2
Hep 3B2 [33] = assay: Induction of chromosome misalignment in nucleus of human Hep3B cells at 80 to 160 uM after 18 hrs by immunofluorescence staining; format: functional, cell-based
[34] = Cell cycle arrest in human Hep3B cells assessed as accumulation at subG1 phase at 160 uM after 24 hrs by flow cytometry (reference value: 1.14%); format: functional, cell-based; settings: Hep 3B2
Tubulin (Sus scrofa) [35] = molecular target: T1, Tubulin (Sus scrofa); assay: Induction of porcine tubulin polymerization at 80 uM measured for every 1 min for 60 mins by spectrophotometry; format: protein assay
[36] = Cell cycle arrest in human Hep3B cells assessed as accumulation at S phase at 80 uM after 24 hrs by flow cytometry (reference value: 11.18%); format: functional, cell-based; settings: Hep 3B2
MDA-MB-231 [37] = assay: Induction of apoptosis in human MDA-MB-231 cells assessed as roundup morphology after 48 hrs by microscopic analysis; format: functional, cell-based
MDA-MB-231 [38] = assay: Induction of apoptosis in human MDA-MB-231 cells assessed as roundup morphology after 24 hrs by microscopic analysis; format: functional, cell-based
Hep 3B2 [39] = assay: Induction of chromosome mislocalization in human Hep3B cells at 80 to 160 uM after 18 hrs by immunofluorescence assay; format: functional, cell-based
[40] = Cell cycle arrest in human Hep3B cells assessed as accumulation at S phase at 27 uM after 24 hrs by flow cytometry (reference value: 11.18%); format: functional, cell-based; settings: Hep 3B2
[41] = Cell cycle arrest in human Hep3B cells assessed as increased the phosphorylation of histone H3 at 80 to 160 uM after 24 hrs by immunofluorescence assay; format: functional, cell-based; settings: Hep 3B2
Hep 3B2 [42] = assay: Induction of apoptosis in human Hep3B cells assessed as roundup morphology after 24 hrs by microscopic analysis; format: functional, cell-based

T1 sequence (P02550 whole entry, looked up): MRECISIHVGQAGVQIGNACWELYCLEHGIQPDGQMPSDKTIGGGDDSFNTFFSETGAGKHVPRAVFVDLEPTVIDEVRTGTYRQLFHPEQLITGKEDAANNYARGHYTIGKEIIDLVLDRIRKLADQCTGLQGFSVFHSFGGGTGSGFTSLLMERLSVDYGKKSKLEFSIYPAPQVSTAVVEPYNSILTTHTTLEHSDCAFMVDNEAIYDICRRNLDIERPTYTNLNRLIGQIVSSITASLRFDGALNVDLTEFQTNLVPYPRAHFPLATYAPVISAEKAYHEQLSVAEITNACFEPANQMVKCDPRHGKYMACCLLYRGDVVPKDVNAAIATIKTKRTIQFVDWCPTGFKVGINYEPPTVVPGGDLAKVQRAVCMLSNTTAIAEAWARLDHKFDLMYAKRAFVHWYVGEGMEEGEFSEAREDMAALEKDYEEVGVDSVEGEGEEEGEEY
T1 sequence (P02554 whole entry, looked up): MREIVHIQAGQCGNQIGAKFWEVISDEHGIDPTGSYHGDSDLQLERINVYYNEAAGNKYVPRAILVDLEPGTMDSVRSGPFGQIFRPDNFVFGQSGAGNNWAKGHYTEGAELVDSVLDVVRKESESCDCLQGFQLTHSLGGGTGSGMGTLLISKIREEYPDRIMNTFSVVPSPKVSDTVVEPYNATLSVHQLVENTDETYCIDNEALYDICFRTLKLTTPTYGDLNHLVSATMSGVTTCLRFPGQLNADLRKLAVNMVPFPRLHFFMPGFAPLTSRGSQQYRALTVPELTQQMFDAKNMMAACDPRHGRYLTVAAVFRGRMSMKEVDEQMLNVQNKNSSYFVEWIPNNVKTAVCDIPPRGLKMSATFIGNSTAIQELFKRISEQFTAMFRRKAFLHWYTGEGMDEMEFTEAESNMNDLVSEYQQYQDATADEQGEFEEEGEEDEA
Apoptosis regulator Bcl-2 (Homo sapiens), sequence (P10415 whole entry): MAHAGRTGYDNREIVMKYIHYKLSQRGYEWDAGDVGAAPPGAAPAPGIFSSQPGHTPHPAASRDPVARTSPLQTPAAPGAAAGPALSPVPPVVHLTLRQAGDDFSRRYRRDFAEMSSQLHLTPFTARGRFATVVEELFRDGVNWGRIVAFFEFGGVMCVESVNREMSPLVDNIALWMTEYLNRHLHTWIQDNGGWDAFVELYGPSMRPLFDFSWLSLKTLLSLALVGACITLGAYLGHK
Cyclin-dependent kinase 1 (Homo sapiens), sequence (P06493 whole entry, looked up): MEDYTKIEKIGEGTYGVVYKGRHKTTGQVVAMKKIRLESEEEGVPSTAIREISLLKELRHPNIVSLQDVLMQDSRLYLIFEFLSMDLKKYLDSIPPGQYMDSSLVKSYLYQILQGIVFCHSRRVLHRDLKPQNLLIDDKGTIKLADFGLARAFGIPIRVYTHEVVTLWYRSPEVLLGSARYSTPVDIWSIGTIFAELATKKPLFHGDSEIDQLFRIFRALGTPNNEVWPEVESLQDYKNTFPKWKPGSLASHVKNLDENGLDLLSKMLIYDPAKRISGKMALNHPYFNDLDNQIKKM

Activity (Tubulin (Homo sapiens)): Active
Structure (SMILES): CC(=O)O[C@H]1C(=O)[C@@]2(C)[C@H]([C@H](OC(=O)c3ccccc3)[C@]3(O)C[C@H](OC(=O)[C@H](O)[C@@H](NC(=O)c4ccccc4)c4ccccc4)C(C)=C1C3(C)C)[C@]1(OC(C)=O)CO[C@@H]1C[C@@H]2O
Activity [1]: Active | Activity [2]: Active | Activity (Hep 3B2 [3]): Active | Activity (Hep 3B2 [4]): Active | Activity (Hep 3B2 [5]): Active

Activity [9]: Active | Activity (Tubulin (Sus scrofa) [20]): Active | inhibition [25]: Active | pKd [27]: 4.15 | Activity (Tubulin (Sus scrofa) [35]): Active
Structure (SMILES): CCC(C)[C@@H]1NC(=O)[C@@H](Cc2ccccc2)n2c1nc1c(c2=O)C=CC=CO1 (some centres undefined) [PROTUBOXEPIN A]
Activity [6]: 7.44% | Activity (Hep 3B2 [7]): Active | Activity (Hep 3B2 [8]): Active | Activity [10]: 7% | Activity [11]: 49.1% | Activity [12]: 41.9% | Activity (Hep 3B2 [13]): Dose-dependent effect | Activity [14]: 46.7% | Activity (Homo sapiens): Active | Activity [15]: 26% | inhibition (HeLa [16]): Active | Activity [17]: 34.4% | Activity [18]: 23.7% | Activity [19]: 39.5% | Activity [21]: 20.5% | Activity [22]: 7.31% | Activity (Hep 3B2 [23]): Active | Activity [24]: Active | Activity (Hep 3B2 [26]): Active | Activity (HeLa [28]): Active | Activity [29]: 18.8% | Activity (Hep 3B2 [30]): Active | Activity [31]: 6.12% | Activity [32]: 2.26% | Activity (Hep 3B2 [33]): Active | Activity [34]: 20.8% | Activity [36]: 10.8% | Activity (MDA-MB-231 [37]): Dose-dependent effect | Activity (MDA-MB-231 [38]): Dose-dependent effect | Activity (Hep 3B2 [39]): Active | Activity [40]: 10.1% | Activity [41]: Active | Activity (Hep 3B2 [42]): Dose-dependent effect
